Drawing on patent US9212130B2, “Heterocyclic derivative and pharmaceutical composition comprising the same” (SHIONOGI & CO., LTD., priority 2010, dated 2015), this text covers IC50 and bioavailability for one compound.

For series [1], the target named is human P2X3 receptor (Homo sapiens (Human), UniProt P56373). The experiment in a line: Evaluation of human P2X3 receptor inhibitory activity (ATP-induced Fluo-3 fluorescence, FDSS 3000). To be noted: C6BU-1 cell transfected with human P2X3 receptor gene. The format is cell-based. In short, it runs like this: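 Human P2X3 inhibition read as ATP-evoked Fluo-3 calcium fluorescence; compound preincubated, then 50 nM ATP solution (concentration as dispensed) added and fluorescence followed 3 min. Response taken as peak-to-baseline fluorescence ratio per well; IC50 derived from concentration–response.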
human P2X3 receptor, sequence (P56373 whole entry): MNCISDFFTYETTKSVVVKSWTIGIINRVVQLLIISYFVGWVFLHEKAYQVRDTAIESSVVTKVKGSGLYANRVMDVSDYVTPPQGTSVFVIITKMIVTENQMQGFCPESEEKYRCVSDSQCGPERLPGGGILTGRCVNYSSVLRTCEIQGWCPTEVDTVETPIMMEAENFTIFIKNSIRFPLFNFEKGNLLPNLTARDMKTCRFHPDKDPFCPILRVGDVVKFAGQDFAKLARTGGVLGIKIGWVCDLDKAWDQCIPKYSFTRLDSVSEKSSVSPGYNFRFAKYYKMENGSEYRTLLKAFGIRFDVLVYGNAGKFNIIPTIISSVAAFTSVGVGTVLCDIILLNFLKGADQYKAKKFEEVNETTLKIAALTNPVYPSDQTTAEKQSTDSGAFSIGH

Series [2] has as its target CYP1A2 (Homo sapiens (Human), UniProt P05177). The experiment in a line: CYP inhibition test, 7-ethoxyresorufin O-deethylation. The format is in vitro ADME. To be noted: pooled human hepatic microsome; 0.5 μmol/L ethoxyresorufin; given as 'five kinds'. On the procedure: (§1) Using commercially available pooled human hepatic microsome, and employing, as markers, 7-ethoxyresorufin O-deethylation (CYP1A2), tolbutamide methyl-hydroxylation (CYP2C9), mephenyloin 4′-hydroxylation (CYP2C19), dextromethorphan O-demethylation (CYP2D6), and terfenedine hydroxylation as typical substrate metabolism reactions of human main five ([…] enzyme forms (CYP1A2, 2C9, 2C19, 2D6, 3A4), an inhibitory degree of each metabolite production amount by a test compound was assessed.
(§2) The reaction conditions were as follows: substrate, 0.5 μmol/L ethoxyresorufin (CYP1A2), 100 μmol/L tolbutamide (CYP2C9), 50 μmol/L S-mephenitoin (CYP2C19), 5 μmol/L dextromethorphan (CYP2D6), 1 μmol/L terfenedine (CYP3A4); reaction time, 15 minutes; reaction temperature, 37° C.; enzyme, pooled human hepatic microsome 0.2 mg protein/mL; test drug concentration, 1.0. 5.0, 10, 20 μmol/L (four points).
(§3) Each five kinds of substrates, human hepatic microsome, or a test drug in 50 mmol/L Hepes buffer as a reaction solution was added to a 96-well plate at the composition as described above. NADPH, as a cofactor was added to initiate metabolism reactions as markers and, after the incubation at 37° C. for 15 minutes, a methanol/acetonitrile=1/1 (v/v) solution was added to stop the reaction. After the centrifugation at 3000 rpm for 15 minutes, resorufin (CYP1A2 metabolite) in the supernatant was quantified by a fluorescent multilabel counter and tributamide hydroxide (CYP2CP metabolite), mephenyloin 4′ hydroxide (CYP2C19 metabolite), […], and terfenadine alcohol (CYP3A4 metabolite) were quantified by LC/MS/MS.
(§4) Addition of only DMSO being a solvent dissolving a drug to a reaction system was adopted as a control (100%), remaining activity (%) was calculated at each concentration of a test drug added as the solution and IC50 was calculated by reverse presumption by a logistic model using a concentration and an inhibition rate.

The target in series [3] is CYP2C19 (Homo sapiens (Human), UniProt P33261). The experiment in a line: CYP inhibition test, mephenyloin 4'-hydroxylation. The format is in vitro ADME. To be noted: pooled human hepatic microsome; 50 μmol/L S-mephenitoin; given as 'five kinds'. The method, then:
as §1, §2, §3, §4

Series [4] is described as follows: Bioavailability (BA) test. The format is in vivo. The settings on record: plasma; Mice or SD rats; oral 0.3 to 30 mg/kg vs intravenous 0.5 to 10 mg/kg; from AUCs. The method, then:
Materials and Methods for Experiment of BA
• (1) Animals: Mice or SD rats were used • (2) Breeding conditions: Mice or SD rats were allowed to freely take solid food and sterilized tap water. • (3) Dose and grouping: orally or intravenously administered at a predetermined dose; grouping was as follows (Dose depends on the compound) Oral administration: 0.3 to 30 mg/kg (n=2 to 3) Intravenous administration: 0.5 to 10 mg/kg (n=2 to 3) • (4) Preparation of dosing solution: for oral administration, in a solution or a suspension state; for intravenous administration, in a solubilized state • (5) Administration method: in oral administration, forcedly administer into ventriculus with oral probe; in intravenous administration, administer from caudal vein with a needle-equipped syringe • (6) Evaluation items: blood was collected over time, and the plasma concentration of drug was measured by LC/MS/MS • (7) Statistical analysis: regarding the transition of the plasma concentration of the present compound, the area under the plasma concentration-time curve (AUC) was calculated by non-linear least squares program WinNonlin (Registered trade name), and the bioavailability (BA) was calculated from the AUCs of the oral administration group and intravenous administration group

CYP1A2, sequence (P05177 whole entry): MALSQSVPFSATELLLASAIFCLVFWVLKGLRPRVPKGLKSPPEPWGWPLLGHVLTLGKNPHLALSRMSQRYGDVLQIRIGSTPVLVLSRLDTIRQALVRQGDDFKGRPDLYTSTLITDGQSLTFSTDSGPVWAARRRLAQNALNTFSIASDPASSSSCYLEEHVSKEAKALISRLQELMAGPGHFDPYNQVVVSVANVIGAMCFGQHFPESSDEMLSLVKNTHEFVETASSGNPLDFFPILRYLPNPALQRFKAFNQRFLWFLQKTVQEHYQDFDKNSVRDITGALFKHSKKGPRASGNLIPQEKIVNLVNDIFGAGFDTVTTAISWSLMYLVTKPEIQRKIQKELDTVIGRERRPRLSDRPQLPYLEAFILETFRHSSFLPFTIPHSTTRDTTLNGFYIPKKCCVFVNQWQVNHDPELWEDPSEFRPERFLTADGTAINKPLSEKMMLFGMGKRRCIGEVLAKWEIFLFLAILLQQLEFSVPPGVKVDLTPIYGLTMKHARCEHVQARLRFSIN
CYP2C19, sequence (P33261 whole entry): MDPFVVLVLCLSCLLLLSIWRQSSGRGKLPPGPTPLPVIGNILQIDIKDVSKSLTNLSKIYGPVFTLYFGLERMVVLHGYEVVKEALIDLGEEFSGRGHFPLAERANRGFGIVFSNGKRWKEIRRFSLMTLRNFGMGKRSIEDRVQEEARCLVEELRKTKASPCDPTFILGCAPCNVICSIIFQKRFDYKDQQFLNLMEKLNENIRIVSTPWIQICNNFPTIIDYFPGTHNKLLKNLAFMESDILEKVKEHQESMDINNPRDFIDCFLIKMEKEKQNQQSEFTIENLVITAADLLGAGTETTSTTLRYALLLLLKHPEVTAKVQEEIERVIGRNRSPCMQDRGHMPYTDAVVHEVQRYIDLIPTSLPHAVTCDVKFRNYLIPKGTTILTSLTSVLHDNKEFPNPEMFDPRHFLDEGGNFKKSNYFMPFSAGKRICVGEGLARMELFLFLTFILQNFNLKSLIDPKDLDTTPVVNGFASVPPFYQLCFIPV

Take `CC(C)Oc1ccc(Nc2cc(=O)n(C[C@H](C)C(=O)O)c(=O)n2Cc2ccc(Cl)cc2)cc1Cl` [I-100]: the IC50 was 0.009 µM in series [1], above 20 µM in series [2] and above 20 µM in series [3]. Further, the bioavailability in series [4] was found to be 29.2%.

For orientation: IC50 means the concentration that gives 50% inhibition. Higher therefore signals lower potency. One may read the bioavailability as dose-corrected exposure relative to a reference, in per cent. A low value points to little systemic uptake.
